In US8415272B2, “Quinoline derivatives and their use as fungicides” (Syngenta Crop Protection LLC, priority 2008, dated 2013):

Tests used:
[1] = system: Erysiphe graminis f.sp. tritici; assay: Leaf disk assay, Erysiphe graminis f.sp. tritici (wheat powdery mildew), preventive; type: in vivo; details: Blumeria graminis, foliar, 96 h, wheat leaf segments, assessed four days after inoculation, read-out: control of fungal infection, Erysiphe graminis f.sp. tritici
Description: The compounds were tested in a leaf disk assay, with methods described below. The test compounds were dissolved in DMSO and diluted into water to 200 ppm. In the case of the test on Pythium ultimum, they were dissolved in DMSO and diluted into water to 20 […] graminis f.sp. tritici (wheat powdery mildew): Wheat leaf segments were placed on agar in a 24-well plate and sprayed with a solution of the test compound. After allowing to dry completely, for between 12 and 24 hours, the leaf disks were inoculated with a spore suspension of the fungus. After appropriate incubation the activity of a compound was assessed four days after inoculation as preventive fungicidal activity.

Phytophthora infestans = assay: whole plant or invertebrate; type: in vivo; details: in Solanum lycopersicum, foliar, 96 h, read-out: control of fungal infection, Phytophthora infestans
Septoria tritici = assay: Growth inhibition in nutrient broth, Septoria tritici (leaf blotch), photometric; type: cell-based; details: Zymoseptoria tritici, PDB broth, 24 C, 72 hrs, read-out: control of fungal infection, Septoria tritici
Plasmopara viticola = assay: Leaf disk assay, Plasmopara viticola (downy mildew of grapevine), preventive; type: in vivo; details: foliar, 168 h, grapevine leaf disks, assessed seven days after inoculation, read-out: control of fungal infection, Plasmopara viticola
Pythium ultimum = assay: Growth inhibition in potato dextrose broth, Pythium ultimum (damping off), photometric; type: cell-based; details: Globisporangium ultimum, 24° C., 48 hours, read-out: control of fungal infection, Pythium ultimum
Description: The compounds were tested in a leaf disk assay, with methods described below. The test compounds were dissolved in DMSO and diluted into water to 200 ppm. In the case of the test on Pythium ultimum, they were dissolved in DMSO and diluted into water to 20 ppm. Pythium ultimum (Damping off): Mycelial fragments of the fungus, prepared from a fresh liquid culture, were mixed into potato dextrose broth. A solution of the test compound in dimethyl sulphoxide was diluted with water to 20 ppm then placed into a 96-well microtiter plate and the nutrient broth containing the fungal spores was added. The test plate was incubated at 24° C. and the inhibition of growth was determined photometrically after 48 hours.

Septoria nodorum = assay: Leaf disk assay, Septoria nodorum (wheat glume blotch), preventive; type: in vivo; details: Parastagonospora nodorum, foliar, 96 h, wheat leaf segments, assessed four days after inoculation, read-out: control of fungal infection, Septoria nodorum

Compound	pest or weed control at 200 ppm [1]	pest or weed control at 200 ppm (Phytophthora infestans)	inhibition of growth at 60 ppm (Septoria tritici)	pest or weed control at 200 ppm (Plasmopara viticola)	inhibition of growth at 20 ppm (Pythium ultimum)	pest or weed control at 200 ppm (Septoria nodorum)
COCC(C)(C#N)NC(=O)C(Oc1cc2cc(C#C[Si](C)(C)C)cnc2cc1F)SC (centres unmarked) [Example 5]	≥ 60%	≥ 60%	≥ 60%	≥ 60%	–	–
COCC(C)(C#N)NC(=O)C(Oc1cc(C)c2ncc(C#CCO)cc2c1)SC (centres unmarked) [Example 27]	≥ 60%	–	–	≥ 60%	≥ 60%	–
COCC#Cc1cnc2c(C)cc(OC(SC)C(=O)NC(C)(C)C)cc2c1 (centres unmarked) [Example 32]	–	–	≥ 60%	–	–	–
COCC#Cc1cnc2c(C)cc(OC(SC)C(=O)NC(C)(C#N)COC)cc2c1 (centres unmarked) [Example 33]	–	≥ 60%	≥ 60%	–	≥ 60%	–
CC#CC(C)(C)NC(=O)C(Oc1cc(C)c2ncc(C#CCOC)cc2c1)SC (centres unmarked) [Example 35]	–	–	≥ 60%	≥ 60%	–	–
C#CC(C)(C)NC(=O)C(Oc1cc(C)c2ncc(C#CCOC)cc2c1)SC (centres unmarked) [Example 36]	–	–	≥ 60%	–	≥ 60%	–
CC#Cc1cnc2c(C)cc(OC(SC)C(=O)NC(C)(C)C)cc2c1 (centres unmarked) [Example 37]	–	–	≥ 60%	–	–	–
CC#Cc1cnc2c(C)cc(OC(SC)C(=O)NC(C)(C#N)COC)cc2c1 (centres unmarked) [Example 38]	≥ 60%	–	≥ 60%	–	≥ 60%	–
CC#Cc1cnc2c(C)cc(OC(SC)C(=O)NC(C)(C)C#CCOC)cc2c1 (centres unmarked) [Example 39]	–	≥ 60%	≥ 60%	≥ 60%	–	–
CC#Cc1cnc2c(C)cc(OC(SC)C(=O)NC(C)(C)C#CC)cc2c1 (centres unmarked) [Example 40]	–	–	≥ 60%	–	–	–
C#CC(C)(C)NC(=O)C(Oc1cc(C)c2ncc(C#CC)cc2c1)SC (centres unmarked) [Example 41]	–	–	≥ 60%	–	–	–
COCC#Cc1cnc2ccc(OC(SC)C(=O)NC(C)(C#N)COC)cc2c1 (centres unmarked) [Example 43]	≥ 60%	≥ 60%	–	–	≥ 60%	–
C#CC(C)(C)NC(=O)C(Oc1ccc2ncc(C#CCOC)cc2c1)SC (centres unmarked) [Example 46]	≥ 60%	≥ 60%	≥ 60%	–	≥ 60%	–
CC#CC(C)(C)NC(=O)C(Oc1ccc2ncc(C#CCO)cc2c1)SC (centres unmarked) [Example 50]	–	≥ 60%	–	≥ 60%	≥ 60%	–
C#CC(C)(C)NC(=O)C(Oc1ccc2ncc(C#CCO)cc2c1)SC (centres unmarked) [Example 51]	–	≥ 60%	–	≥ 60%	≥ 60%	–
COCC(C)(C#N)NC(=O)C(Oc1ccc2ncc(C#CCO)cc2c1)SC (centres unmarked) [Example 52]	–	≥ 60%	–	–	≥ 60%	–
COCC#CC(C)(C)NC(=O)C(Oc1cc2cc(C#C[Si](C)(C)C)cnc2cc1F)SC (centres unmarked) [Example 58]	≥ 60%	–	≥ 60%	–	–	–
CSCC(C)(C#N)NC(=O)C(Oc1ccc2ncc(C#C[Si](C)(C)C)cc2c1)SC (centres unmarked) [Example 59]	–	≥ 60%	≥ 60%	–	–	–
COCOCC(C)(C)NC(=O)C(Oc1cc(C)c2ncc(C#C[Si](C)(C)C)cc2c1)SC (centres unmarked) [Example 60]	–	–	≥ 60%	–	–	–
COCCC(C)(C)NC(=O)C(Oc1ccc2ncc(C#C[Si](C)(C)C)cc2c1)SC (centres unmarked) [Example 78]	≥ 60%	≥ 60%	≥ 60%	≥ 60%	–	≥ 60%

Compound	pest or weed control at 200 ppm [1]	pest or weed control at 200 ppm (Phytophthora infestans)	inhibition of growth at 60 ppm (Septoria tritici)	pest or weed control at 200 ppm (Plasmopara viticola)	inhibition of growth at 20 ppm (Pythium ultimum)	pest or weed control at 200 ppm (Septoria nodorum)
COC(Oc1ccc2ncc(C#C[Si](C)(C)C)cc2c1)C(=O)NC(C)(C)C (centres unmarked) [Example 80]	≥ 60%	≥ 60%	≥ 60%	≥ 60%	–	–
COCC(C)(COC)NC(=O)C(Oc1ccc2ncc(C#C[Si](C)(C)C)cc2c1)SC (centres unmarked) [Example 81]	–	≥ 60%	≥ 60%	–	–	≥ 60%
CCOCC(C)(C)NC(=O)C(Oc1cc(C)c2ncc(C#C[Si](C)(C)C)cc2c1)SC (centres unmarked) [Example 89]	–	–	≥ 60%	–	–	–
CCC(C)(C)NC(=O)C(Oc1ccc2ncc(C#C[Si](C)(C)C)cc2c1)SC (centres unmarked) [Example 91]	≥ 60%	–	≥ 60%	≥ 60%	–	–
C#Cc1cnc2ccc(OC(SC)C(=O)NC(C)(C#N)CF)cc2c1 (centres unmarked) [Example 92]	–	–	–	–	≥ 60%	–
COCCC#CC(C)(C)NC(=O)C(Oc1ccc2ncc(C#C[Si](C)(C)C)cc2c1)SC (centres unmarked) [Example 100]	≥ 60%	≥ 60%	≥ 60%	≥ 60%	≥ 60%	–
CSC(Oc1cc2cc(C#C[Si](C)(C)C)cnc2cc1F)C(=O)NC(C)(C)C (centres unmarked) [Example 101]	–	–	≥ 60%	–	–	–
CCC#CC(C)(C)NC(=O)C(Oc1ccc2ncc(C#C[Si](C)(C)C)cc2c1)SC (centres unmarked) [Example 116]	≥ 60%	≥ 60%	≥ 60%	≥ 60%	–	–
CCC#CC(C)(C)NC(=O)C(Oc1cc(Cl)c2ncc(C#C[Si](C)(C)C)cc2c1)SC (centres unmarked) [Example 119]	–	–	≥ 60%	≥ 60%	–	–
CSC(Oc1cc(Cl)c2ncc(C#C[Si](C)(C)C)cc2c1)C(=O)NC(C)(C)C#CCCCCl (centres unmarked) [Example 120]	–	–	≥ 60%	–	–	–
C#Cc1cnc2ccc(OC(SC)C(=O)NC3(C=O)CCC3)cc2c1 (centres unmarked) [Example 150]	≥ 60%	≥ 60%	–	≥ 60%	–	≥ 60%
C#Cc1cnc2ccc(OC(SC)C(=O)N(C)C3(CO)CCC3)cc2c1 (centres unmarked) [Example 154]	–	–	–	–	≥ 60%	–
C#Cc1cnc2ccc(OC(SC)C(=O)NC(C)(C#C)C=O)cc2c1 (centres unmarked) [Example 161]	–	≥ 60%	–	≥ 60%	≥ 60%	–
C#Cc1cnc2c(F)c(F)c(OC(SC)C(=O)NC(C)(C#N)COC)cc2c1 (centres unmarked) [Example 216]	≥ 60%	–	≥ 60%	≥ 60%	–	–
CSC(Oc1cc2cc(C#C[Si](C)(C)C)cnc2c(F)c1F)C(=O)NC(C)(C)C (centres unmarked) [Example 217]	–	–	≥ 60%	–	–	–
C#Cc1cnc2ccc(OC(OC)C(=O)NC(C)(C)CO)cc2c1 (centres unmarked) [Example 220]	≥ 60%	≥ 60%	≥ 60%	≥ 60%	≥ 60%	–
C#Cc1cnc2ccc(OC(OC)C(=O)NC(C)(C)C=O)cc2c1 (centres unmarked) [Example 221]	≥ 60%	≥ 60%	≥ 60%	≥ 60%	≥ 60%	–
C#Cc1cnc2ccc(OC(SC)C(=O)NC3(C)CSC3)cc2c1 (centres unmarked) [Example 224]	–	–	≥ 60%	–	≥ 60%	–
COCC#CC(C)(C)NC(=O)C(Oc1cc(Cl)c2ncc(C#CCF)cc2c1)SC (centres unmarked) [Example 227]	≥ 60%	≥ 60%	–	≥ 60%	–	–
